Data from patent publication US8853227B2, “Methotrexate adjuvants to reduce toxicity and methods for using the same” (Tosk, Incorporated, priority 2008, dated 2014).

Columns and labels:
Drosophila melanogaster = test: Fly Study I (protection from MTX-induced lethality); format: in vivo; settings: for Flies Alive (Number): Fly Study I method, test compound + MTX (MTX Alone: no adjuvant), Table 3
Procedure: In this study, Drosophila melanogaster eggs (50 eggs per vial) were treated with either 0.005 mg TK-112690+0.4 mg MTX (Group 1), 0.01 mg TK-112690+0.4 mg MTX (Group 2), 0.04 mg TK-112690+0.4 mg MTX (Group 3), 0.1 mg TK-112690+0.4 mg MTX (Group 4), 0.4 mg MTX alone (Group 5) or saline blank (Group 6). Two vials of eggs for each dose group were evaluated for viability (viable flies plus pupae).
The efficacy of cancer chemotherapy can be improved if agents are available to reduce the adverse events associated with treatment with cytotoxic agents. To this end, Drosophila melanogaster (commonly know as the fruit fly) is an ideal organism to screen chemical compounds for such side-effect-reducing agents. This study is aimed at finding a dose of a 2,2′-anhydropyrimidine test article that protects against MTX-induced lethality in insects.
Increasing amounts of a 2,2′-anhydropyrimidine test article (typically 0.03 to 0.1 mg) are mixed in an aqueous solution with 0.3 (or 0.4) mg MTX. Four milliliters (mL) of a 2,2′-anhydropyrimidine test article+MTX solutions are added to an appropriate amount of instant fly medium. Fruit fly eggs are added to a 2,2′-anhydropyrimidine test article+MTX treated medium and incubated for up to 31 days. After the 31 day incubation, each assay is scored by the number of mature fly and pupae per vial.
The assays are set up in clear sterile polystyrene narrow diameter vials from Applied Scientific (Hampton, N.H.). Vials are stored in trays and incubated in a darkened 25° C. incubator.
Reagents and materials used are: 50 mg/mL MTX in H2O (pH 8), 20 mg/mL of the 2,2′-anhydropyrimidine test article in H2O, water, sterile polystyrene narrow diameter vials from Applied Scientific, Instant Drosophila Food Medium, Oregon-R Drosophila melanogaster, 25° C. incubator, and 15 mL polystyrene conical tubes
Each assay is performed in a separate fly vial. Increasing amounts of a 2,2′-anhydropyrimidine (0.005 to 1.0 mg) are tested for MTX side-effect-reduction on fly eggs. Amounts of the 2,2′-anhydropyrimidine test article are drawn from a 20 mg/mL stock solution dissolved in water. Nine mL of the 2,2′-anhydropyrimidine+0.3 (or 0.4) mg MTX solutions are pre-mixed with water in a 15 mL conical tube. Duplicate assays receive 4 mL of the 2,2′-anhydropyrimidine test article+0.3 (or 0.4) mg MTX solutions. Pre-measured amounts of instant drosophila medium are added to each assay to achieve optimal hydration level. Controls are (1) 4 mL water alone and (2) 0.3 (or 0.4) mg MTX alone. Precisely 50 fly eggs aged for ˜18 hours are added to each assay. Assays are capped with a fitted plug and incubated for 30 days in a darkened 25° C. incubator. Assays are scored by the number of dead pupae or adult flies per vial.

CCRF-CEM cells = test: Cell Culture Study I (MTX cytotoxicity, alamarBlue); format: cell-based, human; settings: 72 hours
Procedure: In this study, CCRF-CEM cells purchased from ATCC were cultured and then 12 tubes containing approximately 10^6 cells each treated for 72 hours with media (Group1), MTX 0.03 μM (Group2), MTX+Leucovorin 1 μM (Group3), MTX+Leucovorin 10 μM (Group4), MTX+Leucovorin 100 μM (GroupS), MTX+TK-112690 1 μM (Group6), MTX+TK-112690 10 μM (Group7) and MTX+TK-112690 100 μM (Group8). […] Viability was measured as percent reduction of alamarBlue absorbance.
The tumor cell line CCR-CEM (human T-cell acute lymphoblastic leukemia) is obtained from American Type Culture Collection (CRL-1593.2) and cultured in accordance with the product information sheet with the following exceptions: 55.3 cm^2 Petri dishes are used instead of 75 cm^2 culture flasks, and 1% penicillin-streptomycin solution (HyClone SV30010) and 1% GlutaMAX™ (Gibco 35050) are added to the culture medium.
TK-112690, the representative 2,2′-anhydropyrimidine test article, is dissolved in 40% DMSO, sterile filtered then diluted with sterile distilled water to obtain initial working solutions of 10, 100 and 1000 μM. In testing, a 100 fold dilution is made in culture media to give final assay concentrations of 0.1, 1.0 and 10.0 μM. MTX (SAFC Biosciences M8407) is dissolved in sterile distilled water and 5 N NaOH then sterile filtered. The final pH of the stock solution is 7.8 and working solutions are made with sterile distilled water for final assay concentrations of 30, 3.0, 0.3, 0.03 and 0.003 μM. Leucovorin (Sigma F-7878) is dissolved in sterile distilled water, sterile filtered and diluted with sterile distilled water for final assay concentrations of 0.1, 1.0 and 10.0 μM.
Aliquots of 100 μL of cell suspension are plated in 96 well microtiter plates (Corning costar 3595) and placed in an atmosphere of 5% CO2 at 37° C. (Fisher Scientific Isotemp 3500 CO2 Incubator). After 24 hours, 100 μL of growth medium [RPMI-1640 w/L-glutamine (Cambrex 12-702Q) fortified with sodium pyruvate (HyClone SH30239.01), fetal bovine serum (SAFC Biosciences 12107C) and HEPES buffer (Gibco 15630)] and 2 μL of test solution or vehicle are added respectively per well and the plates incubated for an additional 72 hour incubation. MTX is evaluated at concentrations of 0.003, 0.03, 0.30 and 3.0 μM alone or in combination with either a 2,2′-anhydropyrimidine test article or Leucovorin at concentrations of 0.1, 1.0, 10.0 μM. At the end of incubation, the efficacy of anti-cell proliferation is determined by optical absorbance at A=570 and 600 nm [Spectramax 250 (Molecular Devices)] in accordance with the standard alamarBlue™ (Biosource) protocol.
Group 1 is the cell control (media treated). Group 2 corresponds to cells treated with 0.03 μM MTX. Group 3 are cells treated with 1.0 μM Leucovorin. Group 4 are cells treated with 0.1 μM Leucovorin. […]

Row | SMILES | Flies Alive (Number) (Drosophila melanogaster) | also measured
1 | CCOCc1cn2c(nc1=O)O[C@H]1[C@H](O)[C@@H](CO)O[C@H]12 [TK-000007] | 3 | 
2 | Cc1cn2c(nc1=O)O[C@H]1C(O)[C@@H](CF)O[C@H]12 (some centres unmarked) [TK-000015] | 0 | 
3 | O=c1nc2n(cc1COCc1ccccc1)[C@@H]1O[C@H](CO)[C@@H](O)[C@@H]1O2 [TK-000008] | 0 | 
4 | Cc1ccc(SCc2cn3c(nc2=O)O[C@H]2C(O)[C@@H](CO)O[C@H]23)cc1 (some centres unmarked) [TK-000016] | 0 | 
5 | Nc1nc2c(c(=O)[nH]1)N(C=O)C(CNc1ccc(C(=O)N[C@@H](CCC(=O)O)C(=O)O)cc1)CN2 (some centres unmarked) [Leucovorin, reference compound] |  | cell viability, Leucovorin+MTX versus MTX alone (protection by positive control) (CCRF-CEM cells; 0.03 μM MTX + Leucovorin, p<0.000 and 0.002): statistically different; cell viability, test article alone versus control (CCRF-CEM cells; without MTX): not statistically different than control
6 | CC(=N)OCc1cn2c(nc1=O)O[C@H]1[C@H](O)[C@@H](CO)O[C@H]12 [TK-000010] | 0 | 
7 | COCc1cn2c(nc1=O)O[C@H]1[C@H](O)[C@@H](CO)O[C@H]12 [TK-000009] | 5 | activity in the Fly model for protection against MTX-induced lethality (Drosophila melanogaster): active
8 | Cc1cn2c(nc1=O)O[C@H]1[C@H](O)[C@@H](CN=[N+]=[N-])O[C@H]12 [TK-000011] | 0 | 
9 | O=c1nc2n(cc1NCc1ccccc1)[C@@H]1O[C@H](CO)[C@@H](O)[C@@H]1O2 [TK-000006] | 0 | 
